Reference: PubChem BioAssay (NCI)
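Five compound concentrations were applied to cells in 96-well plates for 48 hours; endpoints were derived by simple linear interpolation of the resulting dose-response curve. Definition used: TGI = concentration required for complete inhibition of growth.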

Legend:
Test in all cases: NCI tumour cell line growth inhibition, 48 h
PC-3 prostate = system: PC-3 prostate
NCI/ADR-RES ovarian = system: NCI/ADR-RES ovarian
UACC-62 melanoma = system: UACC-62 melanoma
NCI-H522 lung = system: NCI-H522 lung
CAKI-1 renal = system: CAKI-1 renal
LOX IMVI melanoma = system: LOX IMVI melanoma
DU-145 prostate = system: DU-145 prostate
HCT-116 colon = system: HCT-116 colon
A549 NSCLC = system: A549 NSCLC
SW-620 colon = system: SW-620 colon
CCRF-CEM leukemia = system: CCRF-CEM leukemia
786-0 renal = system: 786-0 renal
U251 CNS = system: U251 CNS
UO-31 renal = system: UO-31 renal
SK-MEL-2 melanoma = system: SK-MEL-2 melanoma
OVCAR-4 ovarian = system: OVCAR-4 ovarian
MCF7 breast = system: MCF7 breast
OVCAR-5 ovarian = system: OVCAR-5 ovarian
MDA-MB-231 breast = system: MDA-MB-231 breast
MALME-3M melanoma = system: MALME-3M melanoma
NCI-H460 lung = system: NCI-H460 lung
SF-268 CNS = system: SF-268 CNS
SK-OV-3 ovarian = system: SK-OV-3 ovarian
SK-MEL-28 melanoma = system: SK-MEL-28 melanoma
SNB-75 CNS = system: SNB-75 CNS
UACC-257 melanoma = system: UACC-257 melanoma
NCI-H23 lung = system: NCI-H23 lung
SK-MEL-5 melanoma = system: SK-MEL-5 melanoma
HOP-62 NSCLC = system: HOP-62 NSCLC
HS 578T breast = system: HS 578T breast
IGROV1 ovarian = system: IGROV1 ovarian
OVCAR-8 ovarian = system: OVCAR-8 ovarian
MDA-MB-435 = system: MDA-MB-435
OVCAR-3 ovarian = system: OVCAR-3 ovarian
NCI-H226 lung = system: NCI-H226 lung
T-47D breast = system: T-47D breast
EKVX NSCLC = system: EKVX NSCLC
MOLT-4 leukemia = system: MOLT-4 leukemia
HCT-15 colon = system: HCT-15 colon
M14 melanoma = system: M14 melanoma
SNB-19 CNS = system: SNB-19 CNS
HL-60(TB) leukemia = system: HL-60(TB) leukemia
ACHN renal = system: ACHN renal
SF-539 CNS = system: SF-539 CNS
SR leukemia = system: SR leukemia
KM12 colon = system: KM12 colon
HCC-2998 colon = system: HCC-2998 colon
K-562 leukemia = system: K-562 leukemia
COLO 205 colon = system: COLO 205 colon
BT-549 breast = system: BT-549 breast
MDA-N = system: MDA-N
HT29 colon = system: HT29 colon
RXF 393 renal = system: RXF 393 renal
SF-295 CNS = system: SF-295 CNS
RPMI-8226 leukemia = system: RPMI-8226 leukemia
TK-10 renal = system: TK-10 renal
SN12C renal = system: SN12C renal
HOP-92 NSCLC = system: HOP-92 NSCLC
A498 renal = system: A498 renal

With `Cc1cccc2c1CC(Cc1ccccc1C(=O)O)C2=O` (stereo not drawn) the TGI (PC-3 prostate) was greater than 100 µM, the TGI (NCI/ADR-RES ovarian) was greater than 100 µM and the TGI (UACC-62 melanoma) was greater than 100 µM. It also gave a TGI (NCI-H522 lung) greater than 100 µM, a TGI (CAKI-1 renal) greater than 100 µM and a TGI (LOX IMVI melanoma) greater than 100 µM. The TGI (DU-145 prostate) was greater than 100 µM, the TGI (HCT-116 colon) was greater than 100 µM and the TGI (A549 NSCLC) was greater than 100 µM. It also gave a TGI (SW-620 colon) greater than 100 µM, a TGI (CCRF-CEM leukemia) greater than 100 µM and a TGI (786-0 renal) greater than 100 µM. The TGI (U251 CNS) was greater than 100 µM, the TGI (UO-31 renal) was greater than 100 µM and the TGI (SK-MEL-2 melanoma) was greater than 100 µM. For the same molecule, the TGI (OVCAR-4 ovarian) was greater than 100 µM, the TGI (MCF7 breast) was greater than 100 µM and the TGI (OVCAR-5 ovarian) was greater than 100 µM. The TGI (MDA-MB-231 breast) was greater than 100 µM, the TGI (MALME-3M melanoma) was greater than 100 µM and the TGI (NCI-H460 lung) was greater than 100 µM. It also gave a TGI (SF-268 CNS) greater than 100 µM, a TGI (SK-OV-3 ovarian) greater than 100 µM and a TGI (SK-MEL-28 melanoma) greater than 100 µM. For the same molecule, the TGI (SNB-75 CNS) was greater than 100 µM, the TGI (UACC-257 melanoma) was greater than 100 µM and the TGI (NCI-H23 lung) was greater than 100 µM. For the same molecule, the TGI (SK-MEL-5 melanoma) was greater than 100 µM, the TGI (HOP-62 NSCLC) was greater than 100 µM and the TGI (HS 578T breast) was greater than 100 µM. The TGI (IGROV1 ovarian) was greater than 100 µM, the TGI (OVCAR-8 ovarian) was greater than 100 µM and the TGI (MDA-MB-435) was greater than 100 µM. It also gave a TGI (OVCAR-3 ovarian) greater than 100 µM, a TGI (NCI-H226 lung) greater than 100 µM and a TGI (T-47D breast) greater than 100 µM. The TGI (EKVX NSCLC) was greater than 100 µM, the TGI (MOLT-4 leukemia) was greater than 100 µM and the TGI (HCT-15 colon) was greater than 100 µM. It also gave a TGI (M14 melanoma) greater than 100 µM, a TGI (SNB-19 CNS) greater than 100 µM and a TGI (HL-60(TB) leukemia) greater than 100 µM. It also gave a TGI (ACHN renal) greater than 100 µM, a TGI (SF-539 CNS) greater than 100 µM and a TGI (SR leukemia) greater than 100 µM. It also gave a TGI (KM12 colon) greater than 100 µM, a TGI (HCC-2998 colon) greater than 100 µM and a TGI (K-562 leukemia) greater than 100 µM. The TGI (COLO 205 colon) was greater than 100 µM, the TGI (BT-549 breast) was greater than 100 µM and the TGI (MDA-N) was greater than 100 µM. The TGI (HT29 colon) was greater than 100 µM, the TGI (RXF 393 renal) was greater than 100 µM and the TGI (SF-295 CNS) was greater than 100 µM. For the same molecule, the TGI (RPMI-8226 leukemia) was greater than 100 µM, the TGI (TK-10 renal) was greater than 100 µM and the TGI (SN12C renal) was greater than 100 µM. The TGI (HOP-92 NSCLC) was greater than 100 µM.

In the case of `CN1c2ccccc2C2=C(c3ccccc3)CC[C@@H](C(=O)N3C4CC5CC[C@@]4(CS3(=O)=O)C5(C)C)[C@@H]21` (stereo partly drawn), the TGI (PC-3 prostate) is reported as greater than 100 µM, the TGI (NCI/ADR-RES ovarian) is reported as greater than 100 µM and the TGI (UACC-62 melanoma) is reported as greater than 100 µM. It also gave a TGI (NCI-H522 lung) greater than 100 µM, a TGI (CAKI-1 renal) greater than 100 µM and a TGI (LOX IMVI melanoma) greater than 100 µM. It also gave a TGI (DU-145 prostate) greater than 100 µM, a TGI (HCT-116 colon) greater than 100 µM and a TGI (A549 NSCLC) greater than 100 µM. For the same molecule, the TGI (SW-620 colon) was greater than 100 µM, the TGI (A498 renal) was greater than 100 µM and the TGI (CCRF-CEM leukemia) was greater than 100 µM. For the same molecule, the TGI (786-0 renal) was greater than 100 µM, the TGI (U251 CNS) was greater than 100 µM and the TGI (UO-31 renal) was greater than 100 µM. The TGI (OVCAR-4 ovarian) was greater than 100 µM, the TGI (MCF7 breast) was greater than 100 µM and the TGI (OVCAR-5 ovarian) was greater than 100 µM. For the same molecule, the TGI (MDA-MB-231 breast) was greater than 100 µM, the TGI (MALME-3M melanoma) was greater than 100 µM and the TGI (NCI-H460 lung) was greater than 100 µM. It also gave a TGI (SF-268 CNS) greater than 100 µM, a TGI (SK-OV-3 ovarian) greater than 100 µM and a TGI (SK-MEL-28 melanoma) greater than 100 µM. The TGI (SNB-75 CNS) was greater than 100 µM, the TGI (UACC-257 melanoma) was greater than 100 µM and the TGI (NCI-H23 lung) was greater than 100 µM. It also gave a TGI (SK-MEL-5 melanoma) greater than 100 µM, a TGI (HOP-62 NSCLC) greater than 100 µM and a TGI (HS 578T breast) greater than 100 µM. For the same molecule, the TGI (IGROV1 ovarian) was greater than 100 µM, the TGI (OVCAR-8 ovarian) was greater than 100 µM and the TGI (MDA-MB-435) was greater than 100 µM. The TGI (OVCAR-3 ovarian) was greater than 100 µM, the TGI (NCI-H226 lung) was greater than 100 µM and the TGI (T-47D breast) was greater than 100 µM. It also gave a TGI (EKVX NSCLC) greater than 100 µM, a TGI (MOLT-4 leukemia) greater than 100 µM and a TGI (HCT-15 colon) greater than 100 µM. The TGI (M14 melanoma) was greater than 100 µM, the TGI (SNB-19 CNS) was greater than 100 µM and the TGI (ACHN renal) was greater than 100 µM. The TGI (SF-539 CNS) was greater than 100 µM, the TGI (SR leukemia) was greater than 100 µM and the TGI (KM12 colon) was greater than 100 µM. It also gave a TGI (K-562 leukemia) greater than 100 µM, a TGI (COLO 205 colon) greater than 100 µM and a TGI (BT-549 breast) greater than 100 µM. The TGI (MDA-N) was greater than 100 µM, the TGI (HT29 colon) was greater than 100 µM and the TGI (SF-295 CNS) was greater than 100 µM. It also gave a TGI (RPMI-8226 leukemia) greater than 100 µM, a TGI (TK-10 renal) greater than 100 µM and a TGI (SN12C renal) greater than 100 µM. The TGI (HOP-92 NSCLC) was greater than 100 µM.

In the case of `COc1ccc(C2c3cc4c(cc3OC(Nc3ccccc3)C2C)OCO4)cc1` (stereo not drawn), the TGI (PC-3 prostate) is reported as greater than 100 µM, the TGI (UACC-62 melanoma) is reported as greater than 100 µM and the TGI (NCI-H522 lung) is reported as greater than 100 µM. For the same molecule, the TGI (CAKI-1 renal) was greater than 100 µM, the TGI (LOX IMVI melanoma) was greater than 100 µM and the TGI (DU-145 prostate) was greater than 100 µM. The TGI (HCT-116 colon) was greater than 100 µM, the TGI (A549 NSCLC) was greater than 100 µM and the TGI (SW-620 colon) was greater than 100 µM. It also gave a TGI (A498 renal) greater than 100 µM, a TGI (CCRF-CEM leukemia) greater than 100 µM and a TGI (U251 CNS) greater than 100 µM. It also gave a TGI (UO-31 renal) greater than 100 µM, a TGI (SK-MEL-2 melanoma) greater than 100 µM and a TGI (MCF7 breast) greater than 100 µM. The TGI (OVCAR-5 ovarian) was greater than 100 µM, the TGI (MDA-MB-231 breast) was greater than 100 µM and the TGI (MALME-3M melanoma) was greater than 100 µM. The TGI (NCI-H460 lung) was greater than 100 µM, the TGI (SF-268 CNS) was greater than 100 µM and the TGI (SK-OV-3 ovarian) was greater than 100 µM. It also gave a TGI (SK-MEL-28 melanoma) greater than 100 µM, a TGI (SNB-75 CNS) greater than 100 µM and a TGI (UACC-257 melanoma) greater than 100 µM. It also gave a TGI (NCI-H23 lung) greater than 100 µM, a TGI (SK-MEL-5 melanoma) greater than 100 µM and a TGI (HOP-62 NSCLC) greater than 100 µM. The TGI (HS 578T breast) was greater than 100 µM, the TGI (IGROV1 ovarian) was greater than 100 µM and the TGI (MDA-MB-435) was greater than 100 µM. It also gave a TGI (OVCAR-3 ovarian) greater than 100 µM, a TGI (NCI-H226 lung) greater than 100 µM and a TGI (T-47D breast) greater than 100 µM. For the same molecule, the TGI (EKVX NSCLC) was 98.7 µM, the TGI (MOLT-4 leukemia) was greater than 100 µM and the TGI (HCT-15 colon) was greater than 100 µM. For the same molecule, the TGI (M14 melanoma) was greater than 100 µM, the TGI (SNB-19 CNS) was greater than 100 µM and the TGI (HL-60(TB) leukemia) was 59.3 µM. The TGI (ACHN renal) was greater than 100 µM, the TGI (SF-539 CNS) was greater than 100 µM and the TGI (SR leukemia) was 9.18 µM. The TGI (KM12 colon) was greater than 100 µM, the TGI (HCC-2998 colon) was greater than 100 µM and the TGI (K-562 leukemia) was greater than 100 µM. For the same molecule, the TGI (COLO 205 colon) was greater than 100 µM, the TGI (BT-549 breast) was greater than 100 µM and the TGI (MDA-N) was greater than 100 µM. The TGI (HT29 colon) was greater than 100 µM, the TGI (RXF 393 renal) was greater than 100 µM and the TGI (SF-295 CNS) was greater than 100 µM. The TGI (RPMI-8226 leukemia) was greater than 100 µM, the TGI (TK-10 renal) was greater than 100 µM and the TGI (SN12C renal) was greater than 100 µM. For the same molecule, the TGI (HOP-92 NSCLC) was greater than 100 µM.
